In PMC4627284, “High-throughput simultaneous screen and counterscreen identifies homoharringtonine as synthetic lethal with von Hippel-Lindau loss in renal cell carcinoma” (Oncotarget, 2015):

What was measured:
[1] = test system: VHL-deficient 786-O cells; test: High-throughput simultaneous screen and counterscreen, 1:1 mix of EV^GFP and VHL^mCh 786-O cells, fluorescence imaging; format: cell-based, human; conditions: 2 nM; equally affected VHL-deficient and VHL-reconstituted cells
Excerpt: To identify small molecule compounds synthetic lethal with VHL, we carried out an unbiased cell-based screen of a chemical library of ~12,800 compounds using 786-O cells, an extensively studied cell line derived from a VHL-deficient primary human ccRCC [26]. 786-O cells were stably transfected with either an empty vector (EV) control or reconstituted with an HA-tagged VHL cDNA. […] To distinguish between the two otherwise isogenic cell lines, we transduced the VHL-deficient 786-O cells with a histone H2B-GFP reporter and the VHL-reconstituted cells with an H2B-mCherry reporter. The histone proteins drive the fluorochrome to nuclei facilitating cell identification and segmentation algorithms (Figure 1A and 1B). […]
Figure 1 Screening strategy to identify compounds that are synthetic lethal with VHL A. Schematic diagram of a ~12,800 chemical library synthetic lethal screen. […] Fluorescence imaging (using the BD Pathway 855 imager) was used to identify compounds preferentially depleting VHL-deficient/GFP-positive cells after cells were segmented. B. Left panel: Representative image of fluorescence signal from Hoescht-labeled 786-O cells. Right panel: overlay of GFP fluorescence signal (green; from 786-O EV^GFP cells) and mCherry fluorescence nuclear signal (red; VHL^mCh cells). […] Toxicity was determined as ≤100 VHL^mCh cells per field. […]

[2] = test system: VHL-mutant patient-derived ccRCC tumorgraft lines; test: ccRCC tumorgraft model, six VHL-mutant tumorgraft lines; format: in vivo, NOD/SCID mice; conditions: 0.5 mg/kg IP once every 48 hours, positive control
Procedure: We selected 6 independently-derived ccRCC tumorgraft lines that were confirmed to have VHL mutation. The mice (3-5 mice per tumorgraft line) were treated with either HHT (0.7 mg/kg), vehicle (as a negative control), or rapamycin (0.5 mg/kg; as a positive control). In total, 65 tumorgraft bearing mice were evaluated for these experiments in time courses lasting ~28 days, with tumor growth measured every 3 or 4 days.
Figure 3 HHT inhibits tumor growth in a ccRCC tumorgraft model A-F, Tumorgraft lines were treated with vehicle control, HHT (0.7 mg/kg), rapamycin (0.5 mg/kg), (or the combination, where indicated) and tumor growth was measured on the indicated days. Day 0 represents the first day of treatment.
Tumorgrafts were generated and propagated as described previously, with tumor samples implanted subcutaneously into the flank of the mouse for drug trials. Briefly, 4- to 8-week-old NOD/SCID mice were anesthetized with isoflurane and implanted subcutaneously with 64 mm^3 tumor fragments (cohorts 2-20). Once tumors reached an average of at least ~250 mm^3, drug treatment was begun. The mice were treated with vehicle, 0.7 mg/kg homoharringtonine (HHT) via gavage twice daily, or 0.5 mg/kg rapamycin given by IP injection once every 48 hours. Tumor size (volume) was measured twice weekly and was obtained by multiplying tumor length, width, and depth using calipers. To assess toxicity, mouse weight was monitored once weekly.
Sections from tumors were stained with hematoxylin and eosin (H&E) as described previously.

## CO[C@H]1C[C@@H]2CC[C@@H](C)[C@@](O)(O2)C(=O)C(=O)N2CCCC[C@H]2C(=O)O[C@H]([C@H](C)C[C@@H]2CC[C@@H](O)[C@H](OC)C2)CC(=O)[C@H](C)/C=C(\C)[C@@H](O)[C@@H](OC)C(=O)[C@H](C)C[C@H](C)/C=C/C=C/C=C/1C [rapamycin, Rapamycin (sirolimus)]
[1]
  effect on cell proliferation: modestly reduced cell proliferation
[2]
  response of tumorgraft lines: Most lines responded
